Activity calls are given as the source filed them.

Data set [1] concerns the target T1, DNA polymerase subunit gamma-1 (Homo sapiens) (UniProt P54098).
T1 sequence (whole entry): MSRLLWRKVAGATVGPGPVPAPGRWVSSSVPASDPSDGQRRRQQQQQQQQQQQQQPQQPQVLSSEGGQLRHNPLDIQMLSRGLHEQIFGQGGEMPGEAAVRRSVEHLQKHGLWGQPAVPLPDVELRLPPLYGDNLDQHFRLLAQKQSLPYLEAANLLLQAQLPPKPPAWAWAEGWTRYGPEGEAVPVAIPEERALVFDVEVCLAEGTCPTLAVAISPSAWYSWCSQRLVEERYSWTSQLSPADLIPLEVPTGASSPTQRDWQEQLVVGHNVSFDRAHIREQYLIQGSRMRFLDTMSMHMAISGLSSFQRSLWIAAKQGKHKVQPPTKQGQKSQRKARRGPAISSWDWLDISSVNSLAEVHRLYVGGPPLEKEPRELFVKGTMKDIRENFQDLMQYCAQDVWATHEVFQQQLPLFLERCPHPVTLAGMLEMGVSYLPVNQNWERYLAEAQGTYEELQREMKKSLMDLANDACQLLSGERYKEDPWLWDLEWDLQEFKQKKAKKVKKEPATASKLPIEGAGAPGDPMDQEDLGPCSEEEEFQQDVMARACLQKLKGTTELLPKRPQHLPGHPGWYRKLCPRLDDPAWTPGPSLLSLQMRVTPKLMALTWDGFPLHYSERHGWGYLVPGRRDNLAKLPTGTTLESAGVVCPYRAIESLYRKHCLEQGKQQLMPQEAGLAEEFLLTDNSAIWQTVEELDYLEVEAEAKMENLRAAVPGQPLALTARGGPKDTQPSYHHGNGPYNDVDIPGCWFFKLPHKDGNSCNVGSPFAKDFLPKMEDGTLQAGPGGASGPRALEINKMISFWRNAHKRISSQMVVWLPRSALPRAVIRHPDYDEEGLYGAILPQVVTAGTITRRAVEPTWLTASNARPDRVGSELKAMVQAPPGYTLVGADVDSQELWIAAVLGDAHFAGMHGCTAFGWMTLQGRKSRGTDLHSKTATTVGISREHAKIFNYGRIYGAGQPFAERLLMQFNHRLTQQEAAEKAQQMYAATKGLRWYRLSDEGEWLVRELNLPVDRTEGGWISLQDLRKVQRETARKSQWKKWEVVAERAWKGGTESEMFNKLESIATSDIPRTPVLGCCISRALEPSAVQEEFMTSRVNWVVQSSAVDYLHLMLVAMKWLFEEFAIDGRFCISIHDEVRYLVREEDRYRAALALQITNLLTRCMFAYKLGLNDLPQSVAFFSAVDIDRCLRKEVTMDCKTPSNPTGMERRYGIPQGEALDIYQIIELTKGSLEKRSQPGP
Briefly: Substrate activity at human DNA polymerase gamma assessed as elongation of primer at 250 uM incubated for 120 mins in presence of primer/template mixture and dNTPs by primer extension assay based fluorescence analysis.

Data set [2] deals with T1, DNA polymerase subunit gamma-1 (Homo sapiens). Briefly: Substrate activity at human DNA polymerase gamma assessed as elongation of primer at 250 uM incubated for 120 mins in presence of primer/template mixture by primer extension assay based fluorescence analysis.
The subject of data set [3] is Human immunodeficiency virus. Briefly: Substrate activity at HIV reverse transcriptase assessed as full elongation of primer by measuring n+5 band formation incubated for 30 mins in presence of primer/template mixture and dNTPs by primer extension assay based fluorescence analysis.
The subject of data set [4] is Human immunodeficiency virus. Briefly: Substrate activity at HIV reverse transcriptase assessed as n+1 band formation incubated for 30 mins in presence of primer/template mixture and dNTPs by primer extension assay based fluorescence analysis.
A short description of data set [5]: Lipophilicity of the compound assessed as retention time by RP-HPLC analysis. It counts as physicochemical.
Data set [6] concerns Human immunodeficiency virus. Briefly: Inhibition of HIV reverse transcriptase assessed as inhibition of elongation of primer at 25000 uM incubated for 30 mins in presence of primer/template mixture and 250 uM dNTPs by primer extension assay based fluorescence analysis.
In data set [7] the test system is Human immunodeficiency virus 1. Briefly: Antiviral activity against HIV-1 HE infected in wild type human CEM/0 cells assessed as inhibition of virus-induced giant cell formation incubated for 4 to 5 days by light microscopy. The note with it: Human immunodeficiency virus 1, HE, CCRF-CEM. It counts as functional, organism-based.
Data set [8] in a line: Cytotoxicity against human CEM cells assessed as inhibition of cell proliferation. It counts as toxicity, cell-based, CCRF-CEM.
The nature of data set [9]: Selectivity index, ratio of CC50 for cytotoxicity against human CEM cells to EC50 for antiviral activity against HIV-2 ROD infected in thymidine kinase deficient human CEM cells. It counts as toxicity, cell-based. The conditions noted are these: read-out: Ratio CC50/EC50.
The subject of data set [10] is Human immunodeficiency virus 2. Briefly: Antiviral activity against HIV-2 ROD infected in wild type human CEM/0 cells assessed as inhibition of virus-induced giant cell formation incubated for 4 to 5 days by light microscopy. The conditions noted are these: Human immunodeficiency virus 2, ROD, CCRF-CEM. Type of data set: functional, organism-based.
For data set [11], the system named is Human immunodeficiency virus 2. Briefly: Antiviral activity against HIV-2 ROD infected in thymidine kinase deficient human CEM cells assessed as inhibition of virus-induced giant cell formation incubated for 4 to 5 days by light microscopy. It counts as functional, organism-based. The note with it: Human immunodeficiency virus 2, ROD, CCRF-CEM.
The test system of data set [12] is Human immunodeficiency virus. Briefly: Inhibition of HIV reverse transcriptase assessed as inhibition of elongation of primer at 25000 uM incubated for 30 mins in presence of primer/template mixture and dNTPs by primer extension assay based fluorescence analysis.
The test system of data set [13] is Human immunodeficiency virus. Briefly: Substrate activity at HIV reverse transcriptase assessed as n+1 band formation incubated for 30 mins in presence of primer/template mixture and 2.6 fold excess of dNTPs by primer extension assay based fluorescence analysis.
Data set [14] concerns Human immunodeficiency virus. Briefly: Substrate activity at HIV reverse transcriptase assessed as n+1 band formation incubated for 30 mins in presence of primer/template mixture by primer extension assay based fluorescence analysis.
The subject of data set [15] is Human immunodeficiency virus 2. Briefly: Potency index, ratio of Tenofovir EC50 to test compound EC50 for antiviral activity against HIV-2 ROD infected in thymidine kinase deficient human CEM cells. Type of data set: functional.
Data set [16] is described as follows: Prodrug conversion of the compound in phosphate buffer saline assessed as (R)-9-(2-(phosphonomethoxy)propyl)adenine formation by measuring half life at pH 7.3 by RP18-HPLC analysis. Type of data set: ADME.
Data set [17] is described as follows: Prodrug conversion of the compound in phosphate buffer saline assessed as (R)-9-(2-(phosphonomethoxy)propyl)adenine formation by measuring half life in presence of pig liver esterase at pH 7.3 by RP18-HPLC analysis. It counts as ADME, Sus scrofa.
Data set [18] is described as follows: Half life of the compound in human CEM/0 cell extracts by RP18-HPLC analysis. It counts as ADME, CCRF-CEM.
Data set [19] in a line: Half life of the compound in phosphate buffer saline at pH 7.3 by RP18-HPLC analysis. It counts as ADME.
Data set [20] can be described thus: Drug hydrolysis in phosphate buffer saline incubated for 500 hrs at pH 7.3 by RP18-HPLC analysis. Type of data set: physicochemical. The note with it: read-out: Drug degradation.
Data set [21] in a line: Drug hydrolysis in phosphate buffer saline incubated for 600 hrs at pH 7.3 by RP18-HPLC analysis. It counts as physicochemical. The note with it: read-out: Drug degradation.
Data set [22] concerns Human immunodeficiency virus. Briefly: Substrate activity at HIV reverse transcriptase assessed as n+1 band formation at 97.6 to 12500 uM incubated for 30 mins in presence of primer/template mixture and 250 uM dNTPs by primer extension assay based fluorescence analysis. The note with it: dose 97.6-12500 µM.
Data set [23] relates to Human immunodeficiency virus. Briefly: Substrate activity at HIV reverse transcriptase assessed as n+1 band formation at 25000 uM incubated for 30 mins in presence of primer/template mixture and dNTPs by primer extension assay based fluorescence analysis.
Data set [24] has as its system Human immunodeficiency virus. Briefly: Substrate activity at HIV reverse transcriptase assessed as elongation of primer at 97.6 to 12500 uM incubated for 30 mins in presence of primer/template mixture and 250 uM dNTPs by primer extension assay based fluorescence analysis. The note with it: dose 97.6-12500 µM.
The subject of data set [25] is Human immunodeficiency virus. Briefly: Substrate activity at HIV reverse transcriptase assessed as elongation of primer at 97.6 to 12500 uM incubated for 30 mins in presence of primer/template mixture and dNTPs by primer extension assay based fluorescence analysis. The note with it: dose 97.6-12500 µM.
In data set [26] the test system is Human immunodeficiency virus 2. Briefly: Potency index, ratio of Tenofovir EC50 to test compound EC50 for antiviral activity against HIV-2 ROD infected in wild type human CEM/0 cells. It counts as functional.
Data set [27] deals with Human immunodeficiency virus 1. Briefly: Potency index, ratio of Tenofovir EC50 to test compound EC50 for antiviral activity against HIV-1 HE infected in wild type human CEM/0 cells. It counts as functional.
The nature of data set [28]: Prodrug conversion of the compound in phosphate buffer saline assessed as Tenofovir monophosphate by measuring half life in presence of pig liver esterase at pH 7.3 by RP18-HPLC analysis. It counts as ADME, Sus scrofa.
Data set [29] can be described thus: Prodrug conversion of the compound in phosphate buffer saline assessed as Tenofovir monophosphate formation by measuring half life at pH 7.3 by RP18-HPLC analysis. It counts as ADME.

What is called EC50 is the concentration at which the effect is half-maximal. For orientation: CC50 means the concentration at which the toxic effect on the cells reaches its halfway point. Turning to `CCCCCCCCCCCOP(=O)(O)OP(=O)(O)OP(=O)(O)CO[C@H](C)Cn1cnc2c(N)ncnc21`, the outcome in data set [1], in [3], in data set [13] and in data set [14] was Active. Besides, the result in [2] and in [4] was inactive. Moreover, the Retention_time in data set [5] was 12.5 min. The inhibition entry in data set [6] and in [12] was “Active” each time. For the same molecule, the values for the EC50 in data set [7], in [10] and in data set [11] were 5270 nM, 5550 nM and 4620 nM, respectively. Also, the CC50 in data set [8] was above 100000 nM. In data set [9], the selectivity ratio was above 21.

The half-life is the time needed for the level to fall by half in the phase considered. `CCCCCCCCCCCCCCCCCCOP(=O)(O)OP(=O)(O)OP(=O)(O)CO[C@H](C)Cn1cnc2c(N)ncnc21`: the result in data set [1], in [3], in data set [13] and in data set [14] was Active. Also, the outcome in data set [2] and in data set [4] was inactive. Further, the “Ratio EC50” value in data set [15] was 32. Also, the Retention_time in data set [5] is recorded as 14.2 min. Moreover, the inhibition result in data set [6] and in [12] was “Active” throughout. The concentration for a half-maximal effect (EC50) amounted to 360 nM in data set [7], 700 nM in [10] and 27 nM in data set [11]. Besides, the CC50 in data set [8] was above 100000 nM. Moreover, the selectivity ratio in data set [9] was above 3700. Besides, the t1/2 is above 200 h in data set [16] and above 50 h in data set [17]. The same molecule yielded a half-life in [18] above 8 h.

`CCCCCCCCCCCCCCCCCCP(=O)(OCCCCCCCC)OP(=O)(O)OP(=O)(O)CO[C@H](C)Cn1cnc2c(N)ncnc21` (stereo not given in full): the Retention_time in data set [5] is 16.3 min. Besides, the results for the half-maximal effective concentration (EC50) in data set [7], in data set [10] and in data set [11] were 640 nM, 140 nM and 55 nM, respectively. Also, in data set [8], the CC50 is 48500 nM. The selectivity ratio in [9] is 882. Besides, the half-life in data set [19] is above 500 h; in data set [18] it was above 8 h. Also, the degraded at 500 h in data set [20] came out at 36%. For the same molecule, the degraded at 600 h in data set [21] is 43%.

With `C[C@H](Cn1cnc2c(N)ncnc21)OCP(=O)(O)OP(=O)(O)OP(=O)(O)O`, the outcome in data set [1], in data set [3], in data set [4], in data set [22], in data set [24] and in data set [25] was Active. In [14], the result was Active. Also, the result in data set [2] and in data set [23] was inactive. The inhibition result in data set [6] and in data set [12] was “Active” each time.

Take `CCCCCCCCCCCCCCCCCCOP(=O)(OCc1ccc(OC(=O)CCCC)cc1)OP(=O)(O)OP(=O)(O)CO[C@H](C)Cn1cnc2c(N)ncnc21` (stereo not given in full): the Retention_time in [5] stood at 17.5 min. For the same molecule, the EC50 was determined as 150 nM in [7], 76 nM in data set [10] and 58 nM in data set [11]. Moreover, in data set [8], the CC50 came out at 57200 nM. Also, the selectivity ratio in [9] was 986. Further, the t1/2 in data set [16] is 51 h; in [17], 0.683 h. The “Ratio EC50” value is reported as 23 in data set [26] and 13 in data set [27]. The half-life in data set [18] is 2.1 h.

In the case of `CCCCCCCCC(=O)Oc1ccc(COOP(=O)(O)OP(=O)(O)OP(=O)(O)CO[C@H](C)Cn2cnc3c(N)ncnc32)cc1`, in data set [5], the Retention_time is on record as 16.4 min. In addition, the results for the EC50 in data set [7], in [10] and in data set [11] were 1130 nM, 350 nM and 560 nM, respectively. Further, in data set [8], the CC50 was found to be 48900 nM. Also, the selectivity ratio in data set [9] came to 87. Besides, the t1/2 in data set [16] was 9 h; in [28], 3.6 s; in [17], 0.00267 h; in data set [29], above 200 h. Also, in data set [18], the half-life was 0.97 h.

Source of the values: ChEMBL document CHEMBL5518164, “Membrane-permeable tenofovir-di- and monophosphate analogues” (Eur J Med Chem, 2024).
